Source: patent publication US20250288549A1, “SYNTHETIC PROCESS FOR PRODUCTION OF LIPOXIN B4 AND ANALOGUES THEREOF” (UNIVERSITY HEALTH NETWORK, priority 2022, published 2025)
“Also recorded” adds a separate entry of the source.

How the values were obtained:
HT22 neuronal cells = experiment: HT22 glutamate injury model, cell viability by XTT assay; assay type: cell-based; settings: for neuroprotection in glutamate injury model: 1 μM LXB4, glutamate challenge
Excerpt: In order to confirm the bioactivity of the synthesized material, its neuroprotective effects were confirmed in a neuronal injury model. Recent clinical failures of a variety of neuroprotection trials have intensified interest in new treatment strategies. Evidence is accumulating that lipoxins and other lipid mediators can have an important impact on neuroinflammation and neuronal survival.[13,38] […] Yet the lack of efficient syntheses of LXB4 coupled with the expensive cost from commercial sources (USD$806/100 μg, Cayman Chemical)[36] have made this new mechanism of action challenging to modify and study. In this regard the presently described synthetic route towards LXB4, and analogues thereof, provide a benefit for improving production and/or reducing cost of production of LXB4 and analogues thereof. Therefore, the neuroprotective activity of newly synthesized LXB4 was compared it against the commercial source to confirm its activity.[36] For this assay, HT22 neuronal cells were pre-treated with LXB4 from both sources (commercial vs. in-house), followed by a glutamate challenge to induce excitotoxic cell death.[14] Cell viability was then measured using an XTT assay.
HT22 cells (SCC129, EMD Millipore) were grown on 100-mm tissue culture dishes (83.3902.300, Sarstedt) and maintained in high glucose DMEM (Sigma, D5796-500ML) supplemented with 10% fetal bovine serum (080-150, Wisent) and 1% Penstrep (15140122, Gibco) at 37° C. in a 5% CO2 atmosphere incubator (67/340,1045, CellXpert C170, Eppendorf). Cells used for experiments were maintained at a <80% confluency and <25 passages, and were dissociated using TrypIE (12604013, Gibco).
HT22 cells were seeded at 4×10^3 cells in 100 μL of the high glucose DMEM+10% fetal bovine serum+1% Penstrep media on replicate wells of 96-well plates (83.3924.300, Sarstedt) for 20 hours at 37° C. in a 5% CO2 atmosphere humidified incubator. Cells were then pretreated with 5 μL of the indicated LXB4 concentration, or vehicle, one hour prior to addition of 3 mM glutamate stressor. Cells were exposed for 13 hours, then evaluated for cell viability using an XTT assay, according to the manufacturer's instructions (11465015001, Roche). The resulting absorbance values were read in a BMG CLARIOstar microplate reader under 490 nm excitation following 2 hours of XTT incubation and analyzed using Graphpad Prism 9 for ANOVA analyses and curve fitting.

[1] = Storage and handling stability of LXB4; assay type: physicochemical
Experimental: Instability of LXB4 presented a substantial obstacle its synthesis and purification. […] Telescoping the final transformations from 27 to 2, preventing light exposure, and storing all crude intermediates in a methanol solution were required to obtain LXB4 of sufficient purity. LXB4 could be stored as a solution in methanol or ethanol at −20° C. for several weeks or at −80° C. for one to three months before substantial degradation was observed.
Dimethylethoxysilane (560 uL, 4.03 mmol, 8.0 equiv.) was added in one portion, followed by dropwise addition of Karstedt's catalyst (platinum(0)-1,3-divinyl-1,1,3,3,-tetramethyldisoloxane complex, 2% Pt) (115 μL, 0.010 mmol, 2 mol %). The round bottom flask was covered with foil to prevent UV exposure and the solution was stirred overnight at room temperature. […] The crude reaction mixture was filtered through a silica plug, which was washed with Et2O, and the collected filtrate was dried under vacuum to afford a yellow-brown oil. This oil was redissolved in anhydrous THF (4.4 mL) under argon. The solution was again wrapped in foil, and a solution of TBAF in THF (1.0 M, 4.0 mL, 8.0 equiv.) was added dropwise. The reaction was stirred at room temperature for 20 minutes. […] Another […] was added dropwise. […] The reaction was quenched by the addition of phosphate buffer (pH 7) and water and extracted with diethyl ether. The combined organic phase was dried over Na2SO4 and concentrated in vacuo. The crude oil was immediately redissolved in THF/H2O (3:1, 2.5 mL) and treated with LiOH (12.1 mg, 0.50 mmol, 1.0 equiv.) mmol. The resulting solution was stirred at room temperature in a round-bottom flask wrapped in aluminium foil until TLC indicated complete conversion. The reaction mixture was flash filtered through celite to remove any residual LiOH solid and washed with THF. The remaining solvent was removed in vacuo to afford a sticky yellow residue, which was immediately redissolved in MeOH. […] This material was purified by reverse phase HPLC (XBridge BEH OBD Prep column, 130A, 5 μM, 30 mm×150 mm) using a mobile phase of H2O+0.05% NH4OH (A) and acetonitrile+0.05% NH4OH (B) and a gradient elution of 97:3 A:B to 67:33 A:B. After lyophilization, we obtained 98.7 mg of LXB4 for a yield of 56% over three steps. LXB4 should be stored on dry ice until injected into the HPLC. In a solution in methanol at room temperature, formation of impurities which are extremely difficult to separate by HPLC occurred in 1-2 hours.

[2] = test system: retinal ganglion cell death; settings: acute and chronic models of retinal ganglion cell death, glaucoma; cited from earlier work
neuronal cell types = settings: cited from earlier work

stability to air and light [1] | stability in HPLC buffer ([1]; HPLC buffer) | stability stored as a solid ([1]; crude or purified material, room temperature) | stability stored as a solid ([1]; low temperature (−20° C.)) | time to formation of impurities ([1]; solution in methanol at room temperature) [h] | storage time before substantial degradation ([1]; solution in methanol or ethanol at −20° C.) | storage time before substantial degradation ([1]; solution in methanol or ethanol at −80° C.) | SMILES | neuroprotection in glutamate injury model (HT22 neuronal cells; n=8, p<0.05) | neuroprotection in glutamate injury model (HT22 neuronal cells; n=8, p<0.05, listed as synthesized LXB4) | EC50 (HT22 neuronal cells; Mus musculus, HT-22, glutamate injury, dose response curve, n=8) [nM] | efficacy in vivo [2] | potency relative to LXA4 (neuronal cell types; established neuronal injury model, also primary cortical, hippocampal and retinal ganglion cells) [fold] | potency and efficacy in direct neuroprotection compared with LXA4 (neuronal cell types; variety of neuronal cell types, acute and chronic injury models of glaucoma)
highly unstable | stable in HPLC buffer for several hours | rapid degradation | rapid degradation | 1 to 2 | several weeks | one to three | CCCCC[C@H](O)[C@H](O)/C=C/C=C/C=C\C=C\[C@@H](O)CCCC(=O)O [LXB4, (5S,6E,8Z,10E,12E,14R,15S)-5,14,15-trihydroxyicosa-6,8,10,12-tetraenoic acid] | significantly neuroprotective | significant protection | 293 | efficacy in vivo | 20 | significantly more potent and efficacious than LXA4
– | – | – | – | – | – | – | CCCCC[C@H](O)[C@H](O)/C=C/C=C/C=C\C=C\[C@@H](O)CCCC(=O)O [commercial LXB4, reference compound] | significantly neuroprotective; also recorded: significant protection | – | – | – | – | –
